According to ChEMBL document CHEMBL1201862, “PubChem BioAssay data set” (2004):
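Compound exposure: 48 hours, 5 concentrations, 96-well plates. Here, GI50 denotes the concentration required for 50% inhibition of growth.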 The source made the active and inactive calls. Cut-off read from the data, not from the text of the source: active = GI50 up to about 1.1 µM and inactive = higher.

Tests used:
Assay in all cases: NCI anticancer screen, dose series, 48 h
MDA-MB-435 = test system: MDA-MB-435
A549 = test system: A549
Hs-578T = test system: Hs-578T
SK-MEL-5 = test system: SK-MEL-5
HOP-62 = test system: HOP-62
HL-60 = test system: HL-60
NCI-H460 = test system: NCI-H460
LOX IMVI = test system: LOX IMVI
CAKI-1 = test system: CAKI-1
KM12 = test system: KM12
RPMI-8226 = test system: RPMI-8226
NCI-H23 = test system: NCI-H23
SNB-19 = test system: SNB-19
CCRF-CEM = test system: CCRF-CEM
PC-3 = test system: PC-3
U-251 = test system: U-251
SW-620 = test system: SW-620
MDA-N = test system: MDA-N
NCI-H522 = test system: NCI-H522
SK-MEL-28 = test system: SK-MEL-28
SF-268 = test system: SF-268
HCT-15 = test system: HCT-15
OVCAR-8 = test system: OVCAR-8
SR = test system: SR
786-0 = test system: 786-0
MDA-MB-231 = test system: MDA-MB-231
EKVX = test system: EKVX
HCT-116 = test system: HCT-116
M14 = test system: M14
SF-539 = test system: SF-539
DU-145 = test system: DU-145
RXF 393 = test system: RXF 393
OVCAR-3 = test system: OVCAR-3
MCF7 = test system: MCF7
TK-10 = test system: TK-10
Malme-3M = test system: Malme-3M
HCC 2998 = test system: HCC 2998
NCI/ADR-RES = test system: NCI/ADR-RES
K562 = test system: K562
MOLT-4 = test system: MOLT-4
IGROV-1 = test system: IGROV-1
SF-295 = test system: SF-295
NCI-H226 = test system: NCI-H226
ACHN = test system: ACHN
SNB-75 = test system: SNB-75
COLO 205 = test system: COLO 205
HT-29 = test system: HT-29
SN12C = test system: SN12C
UO-31 = test system: UO-31
UACC-257 = test system: UACC-257
OVCAR-5 = test system: OVCAR-5
UACC-62 = test system: UACC-62
T47D = test system: T47D
HOP-92 = test system: HOP-92
OVCAR-4 = test system: OVCAR-4
SK-OV-3 = test system: SK-OV-3
A498 = test system: A498
SK-MEL-2 = test system: SK-MEL-2
BT-549 = test system: BT-549

Measured: GI50

COc1ccc(N[S+]([O-])c2cccc(C)c2)cc1 (stereo unspecified)
inactive: MDA-MB-435 34.9 µM | A549 29.3 µM | Hs-578T 87.9 µM | SK-MEL-5 25.6 µM | HOP-62 64 µM | HL-60 25.7 µM | NCI-H460 30 µM | LOX IMVI 17.3 µM | CAKI-1 98.6 µM | KM12 17.5 µM | RPMI-8226 26.2 µM | NCI-H23 > 100 µM | SNB-19 > 100 µM | CCRF-CEM 48 µM | PC-3 > 100 µM | U-251 79.1 µM | SW-620 57.5 µM | MDA-N > 100 µM | NCI-H522 8.59 µM | SK-MEL-28 33 µM | SF-268 30.5 µM | OVCAR-8 52.1 µM | SR 35.9 µM | 786-0 > 100 µM | MDA-MB-231 48.5 µM | EKVX 12.2 µM | HCT-116 32.7 µM | M14 > 100 µM | SF-539 27.8 µM | DU-145 > 100 µM | RXF 393 54.5 µM | OVCAR-3 > 100 µM | MCF7 75.5 µM | TK-10 > 100 µM | Malme-3M 75.5 µM | HCC 2998 3.88 µM | NCI/ADR-RES 14 µM | K562 9.73 µM | MOLT-4 35.3 µM | IGROV-1 28.3 µM | SF-295 > 100 µM | NCI-H226 > 100 µM | ACHN 7.76 µM | SNB-75 > 100 µM | COLO 205 59.6 µM | HT-29 92.9 µM | SN12C > 100 µM | UO-31 20.4 µM | UACC-257 > 100 µM | OVCAR-5 > 100 µM
5.21 µM: HCT-15

CC[C@@]1(O)C(=O)OCc2c1cc1n(c2=O)Cc2c-1nc1ccccc1c2/C=N/c1ccccc1N[C@@H]1c2cc3c(cc2[C@@H](c2cc(OC)c(O)c(OC)c2)[C@H]2C(=O)OC[C@@H]21)OCO3
active: A549 0.0411 µM | SK-MEL-5 0.0955 µM | HOP-62 < 0.0189 µM | NCI-H460 < 0.01 µM | LOX IMVI 0.0138 µM | CAKI-1 0.0225 µM | RPMI-8226 0.27 µM | PC-3 0.284 µM | U-251 0.296 µM | SW-620 0.132 µM | SF-268 0.0285 µM | 786-0 0.0213 µM | HCT-116 0.0469 µM | M14 0.04 µM | MCF7 < 0.0115 µM | UACC-62 0.0264 µM | Malme-3M 0.394 µM | MOLT-4 < 0.01 µM | T47D 0.0236 µM | NCI-H226 0.0702 µM | ACHN < 0.0145 µM | SNB-75 0.051 µM | HOP-92 0.224 µM | UACC-257 0.412 µM

CNC(=O)OC(C)CN1c2ccccc2Sc2ccc(Cl)cc21 (stereo unspecified)
> 10 µM: HCT-15
inactive: MDA-MB-435 > 10 µM | A549 > 10 µM | Hs-578T > 10 µM | SK-MEL-5 > 10 µM | HOP-62 > 10 µM | HL-60 > 10 µM | NCI-H460 > 10 µM | LOX IMVI > 10 µM | CAKI-1 > 10 µM | RPMI-8226 > 10 µM | NCI-H23 > 10 µM | SNB-19 > 10 µM | CCRF-CEM > 10 µM | PC-3 > 10 µM | U-251 > 10 µM | SW-620 > 10 µM | MDA-N > 10 µM | NCI-H522 > 10 µM | SK-MEL-28 > 10 µM | SF-268 > 10 µM | OVCAR-8 > 10 µM | OVCAR-4 > 10 µM | SR > 10 µM | MDA-MB-231 > 10 µM | EKVX > 10 µM | HCT-116 > 10 µM | M14 > 10 µM | SF-539 > 10 µM | DU-145 > 10 µM | RXF 393 > 10 µM | SK-OV-3 > 10 µM | OVCAR-3 > 10 µM | MCF7 > 10 µM | TK-10 > 10 µM | UACC-62 > 10 µM | Malme-3M > 10 µM | HCC 2998 > 10 µM | NCI/ADR-RES > 10 µM | K562 > 10 µM | MOLT-4 > 10 µM | T47D > 10 µM | IGROV-1 > 10 µM | SF-295 > 10 µM | A498 > 10 µM | NCI-H226 > 10 µM | ACHN > 10 µM | SNB-75 > 10 µM | COLO 205 > 10 µM | HT-29 > 10 µM | SN12C > 10 µM | UO-31 > 10 µM | SK-MEL-2 > 10 µM | OVCAR-5 > 10 µM

N=C(N)c1ccc(OCCCCCOc2ccc(C(=N)N)cc2)cc1 [PENTAMIDINE]
inactive: MDA-MB-435 16.6 µM | A549 11 µM | Hs-578T 14.9 µM | HOP-62 14.9 µM | HL-60 19.3 µM | NCI-H460 2.98 µM | LOX IMVI 16.1 µM | CAKI-1 57 µM | NCI-H23 10.4 µM | SNB-19 10.7 µM | PC-3 18.5 µM | U-251 8.26 µM | MDA-N 15.6 µM | SK-MEL-28 14.7 µM | SF-268 17.2 µM | OVCAR-8 13.7 µM | OVCAR-4 10.9 µM | 786-0 13.7 µM | MDA-MB-231 16.7 µM | EKVX 19.1 µM | HCT-116 22.4 µM | M14 15.5 µM | SF-539 12.6 µM | DU-145 13.2 µM | RXF 393 16.7 µM | OVCAR-3 14.3 µM | MCF7 9.55 µM | TK-10 18.9 µM | UACC-62 12.2 µM | HCC 2998 12.2 µM | NCI/ADR-RES 71.6 µM | K562 3.45 µM | T47D 7.76 µM | ACHN 23.6 µM | SN12C 6.55 µM | HOP-92 28.5 µM | SK-MEL-2 9.06 µM | OVCAR-5 21 µM
24.8 µM: HCT-15

O=C(NCCCN(CCCCN(CCCNC(=O)C(F)(F)F)Cc1ccc2ccccc2c1)Cc1ccc2ccccc2c1)C(F)(F)F
active: HL-60 0.74 µM
6.12 µM: HCT-15
inactive: MDA-MB-435 1.9 µM | A549 > 100 µM | SK-MEL-5 1.75 µM | HOP-62 > 100 µM | NCI-H460 2.21 µM | LOX IMVI 4.36 µM | KM12 5.83 µM | RPMI-8226 2.81 µM | CCRF-CEM > 78.2 µM | PC-3 6.95 µM | U-251 3.91 µM | SW-620 > 100 µM | NCI-H522 8.93 µM | SK-MEL-28 2.32 µM | SF-268 > 100 µM | OVCAR-8 > 100 µM | OVCAR-4 2.62 µM | SR 2.7 µM | 786-0 > 100 µM | MDA-MB-231 > 100 µM | EKVX > 100 µM | HCT-116 4.45 µM | M14 1.99 µM | SF-539 4.62 µM | DU-145 > 100 µM | RXF 393 3.77 µM | SK-OV-3 > 100 µM | OVCAR-3 > 100 µM | BT-549 6.22 µM | MCF7 1.95 µM | TK-10 > 100 µM | UACC-62 2.31 µM | HCC 2998 1.53 µM | NCI/ADR-RES 73.5 µM | K562 2.48 µM | MOLT-4 5.28 µM | T47D 5.05 µM | IGROV-1 7.87 µM | SF-295 > 28.6 µM | A498 > 100 µM | NCI-H226 > 100 µM | ACHN > 100 µM | SNB-75 > 100 µM | COLO 205 1.95 µM | HT-29 1.44 µM | SN12C > 100 µM | UO-31 2.33 µM | HOP-92 > 100 µM | UACC-257 2.28 µM | SK-MEL-2 > 20 µM | OVCAR-5 > 100 µM
